{"source": "patent US8603227B2", "about": "“Composition for prevention of influenza viral infection comprising tannic acid, air filter comprising the same and air cleaning device comprising the filter” (Woongjin Coway Co., Ltd., priority 2009, dated 2013)", "assay_type_in_all_cases": "cell-based, influenza A virus subtype H1N1", "key": {"[1]": {"system": "influenza A/PR/8 (H1N1)", "assay": "Plaque assay of tannic acid against influenza A/PR/8 (H1N1) on MDCK cells", "experimental": "(§1) Tannic acid was assayed for inhibitory activity against influenza virus as follows.\n(§2) As influenza virus strains to be tested, influenza A subtype H1N1 viruses A/PR/8 (H1N1) and A/WSN (H1N1) as well as the WHO standard strain influenza A (H1N1) (A/California/O4/09), which was responsible for the declaration of the 2009 pandemic, were used.\n(§3) Tannic acid was used as a sample in the following procedure.\n(§4) The MDCK (Mardine Darbine Canine Kidney) cell line was inoculated at a density of 1.5×10^6 cells/mL into 6-well plates which were then incubated at 37° C. for 24 his in a 5% CO2 atmosphere. Separately, tannic acid was diluted to 100 mg/ml (1×) in an injection solution. The dilution was subjected to serial 10-fold dilutions. The specimens thus obtained were added in an amount of 90 μL per well to 96-well plates. 10 uL of an influenza virus sample was added to each well, incubated for 10 min, and 10-fold diluted with PBS. The MDCK cell line which had grown to confluence on the plates was infected with 1 mL of the dilution and incubated for 1 hr. For an “infection+non-administration” control, the MDCK cell line was infected with influenza virus which had not been treated with tannic acid.\n(§5) Thereafter, the medium was removed, and a mixture of 1:1 2× agarose:2×MEM containing 10 μg/ml trypsin was added in an amount of 2 mL per well. […]"}, "[2]": {"system": "new influenza A (H1N1) (A/California/O4/09)", "assay": "Plaque assay of tannic acid against new influenza A (H1N1) A/California/O4/09 on MDCK cells", "experimental": "as §1, §2, §3, §4, §5"}, "[3]": {"system": "influenza A/WSN/33 (H1N1)", "assay": "Plaque assay of tannic acid against influenza A/WSN/33 (H1N1) on MDCK cells", "experimental": "as §1, §2, §3, §4, §5"}, "[4]": {"conditions": "(1-treated/control)x100, MDCK plaque count"}, "[5]": {"conditions": "virus incubated 10 min with tannic acid, MDCK plaque count"}}}
{"smiles": "O=C(OC[C@H]1O[C@@H](OC(=O)c2cc(O)c(O)c(OC(=O)c3cc(O)c(O)c(O)c3)c2)[C@H](OC(=O)c2cc(O)c(O)c(OC(=O)c3cc(O)c(O)c(O)c3)c2)[C@@H](OC(=O)c2cc(O)c(O)c(OC(=O)c3cc(O)c(O)c(O)c3)c2)[C@@H]1OC(=O)c1cc(O)c(O)c(OC(=O)c2cc(O)c(O)c(O)c2)c1)c1cc(O)c(O)c(OC(=O)c2cc(O)c(O)c(O)c2)c1", "note": "[Tannic Acid, Tannic acid]", "values": [{"measurement": "Inhibitory Activity", "setting": "[1]; [4]", "result": 99.99, "unit": "%"}, {"measurement": "Virus Titer", "setting": "[1]; [5]", "result": "Not-detected"}, {"measurement": "Inhibitory Activity", "setting": "[2]; [4]", "result": 99.99, "unit": "%"}, {"measurement": "Virus Titer", "setting": "[2]; [5]", "result": "Not-detected"}, {"measurement": "Inhibitory Activity", "setting": "[3]; [4]", "result": 99.99, "unit": "%"}, {"measurement": "Virus Titer", "setting": "[3]; [5]", "result": "Not-detected"}]}
